From patent US11970499B1, “Pyrazolo[1,5-c]pyrimidine compounds as CK2 inhibitors” (KING FAISAL UNIVERSITY, priority 2023, dated 2024)

What was measured:
recombinant human CK2 = molecular target: T1, recombinant human CK2 (Homo sapiens, UniProt P68400); test: CK2 Kinase Assay (33P-ATP, substrate peptide RRRDDDSDDD); assay type: biochemical; conditions: recombinant human CK2 holoenzyme, final ATP 15 μM, 10 min at 30° C.; read-out: protein kinase CK2 activity IC50
T1 construct: purchased Millipore
Description: CK2 Kinase Assay was conducted using the protocol as described in Pierre F. et al; J. Med. Chem. 2011, 54, 635-654. The tested compounds in aqueous solution were added at a volume of 10 μL to a reaction mixture comprising 10 μL of assay dilution buffer (ADB; 20 mM MOPS, pH 7.2, 25 mM β-glycerol phosphate, 5 mM EGTA, 1 mM sodium orthovanadate, and 1 mM dithiothreitol), 10 μL of substrate peptide (RRRDDDSDDD, dissolved in ADB at a concentration of 1 mM), 10 μL of recombinant human CK2 (RRββ-holoenzyme, 25 ng dissolved in ADB; Millipore). Reactions were initiated by the addition of 10 μL of ATP solution (90% 75 mMMgCl2, 75 sM ATP (final ATP concentration:15 μM) dissolved in ADB; 10% [γ-^33P] ATP (stock 1 mCi/100 μL; 3000 Ci/mmol (Perkin-Elmer) and maintained for 10 min at 30° C. The reactions were quenched with 100 μL of 0.75% phosphoric acid and then transferred to and filtered through a phosphor cellulose filter plate (Millipore). After washing each well five times with 0.75% phosphoric acid, the plate was dried under vacuum for 5 min and, following the addition of 15 μL of scintillation fluid to each well, the residual radioactivity was measured using a Wallac luminescence counter. The IC50 values were derived from eight concentrations of test inhibitors.

H1299 (lung) = test: MTT in vitro cytotoxic activity assay, H1299; assay type: cell-based; conditions: Homo sapiens, NCI-H1299; H1299 cells, exposed for 96 hours; read-out: Cytotoxicity activity IC50, H1299 (lung)
Description: (§1) Compounds 1-20 were screened for their in vitro cytotoxic activity utilizing a 3-(4,5-dimethyl-thiazol-2-yl)-2,5-diphenyltetrazolium bromide (MTT) assay against selected cancer human cell lines consisting of PC3 (prostate), HCT 116 (colon), A375 (melanoma), H1299 (lung), MIAPaCa-2 (pancreas), HL60 (leukemia), MCF7 (breast), MDA-MB-231 (breast) (T. Mosmann, J. Immunol. Meth., 1983, 65, 55-63). The cells were cultured at 37° C. in RMPI1640 medium supplemented with 10% fetal bovine serum, 50 IU/mL penicillin, and 50 μg/mL streptomycin in a 5% CO2 incubator. All cells were sub-cultured 3 times/week by trypsinisation. Viable cells were seeded and allowed to adhere for 12 h before a test drug was added in 96-well plates at an initial density of 1.0×10^5 cells/mL. Tumor cell lines were separately exposed to various concentrations of the tested compounds followed by incubation at a temperature of 37° C. during 96 hours inside a medium of fresh RMPI 1640. Cells were subsequently incubated at 37° C. using MTT at 0.5 mg/mL during 4 hours. After removal of supernatant, formazan crystals were dissolved in isopropanol and the optical density was measured at 570 nm. CX-4945 was used as a positive control.

HCT116 (colon) = test: MTT in vitro cytotoxic activity assay, HCT116; assay type: cell-based; conditions: Homo sapiens, HCT-116; HCT116 cells, exposed for 96 hours; read-out: Cytotoxicity activity IC50, HCT116 (colon)
Description: as §1

A375 (melanoma) = test: MTT in vitro cytotoxic activity assay, A375; assay type: cell-based; conditions: Homo sapiens, A-375; A375 cells, exposed for 96 hours; read-out: Cytotoxicity activity IC50, A375 (melanoma)
Description: as §1

MIAPaCa-2 (pancreas) = test: MTT in vitro cytotoxic activity assay, MIAPaCa-2; assay type: cell-based; conditions: Homo sapiens, MIA PaCa-2; MIAPaCa-2 cells, exposed for 96 hours; read-out: Cytotoxicity activity IC50, MIAPaCa-2 (pancreas)
Description: as §1

PC3 (prostate) = test: MTT in vitro cytotoxic activity assay, PC3; assay type: cell-based; conditions: Homo sapiens, PC-3; PC3 cells, exposed for 96 hours; read-out: Cytotoxicity activity IC50, PC3 (prostate)
Description: as §1

MDA-MB-231 (breast) = test: MTT in vitro cytotoxic activity assay, MDA-MB-231; assay type: cell-based; conditions: Homo sapiens; MDA-MB-231 cells, exposed for 96 hours; read-out: Cytotoxicity activity IC50, MDA-MB-231 (breast)
Description: as §1

MCF7 (breast) = test: MTT in vitro cytotoxic activity assay, MCF7; assay type: cell-based; conditions: Homo sapiens; MCF7 cells, exposed for 96 hours; read-out: Cytotoxicity activity IC50, MCF7 (breast)
Description: as §1

HL60 (leukemia) = test: MTT in vitro cytotoxic activity assay, HL60; assay type: cell-based; conditions: Homo sapiens, HL-60; HL60 cells, exposed for 96 hours; read-out: Cytotoxicity activity IC50, HL60 (leukemia)
Description: as §1

T1 sequence (P68400 whole entry): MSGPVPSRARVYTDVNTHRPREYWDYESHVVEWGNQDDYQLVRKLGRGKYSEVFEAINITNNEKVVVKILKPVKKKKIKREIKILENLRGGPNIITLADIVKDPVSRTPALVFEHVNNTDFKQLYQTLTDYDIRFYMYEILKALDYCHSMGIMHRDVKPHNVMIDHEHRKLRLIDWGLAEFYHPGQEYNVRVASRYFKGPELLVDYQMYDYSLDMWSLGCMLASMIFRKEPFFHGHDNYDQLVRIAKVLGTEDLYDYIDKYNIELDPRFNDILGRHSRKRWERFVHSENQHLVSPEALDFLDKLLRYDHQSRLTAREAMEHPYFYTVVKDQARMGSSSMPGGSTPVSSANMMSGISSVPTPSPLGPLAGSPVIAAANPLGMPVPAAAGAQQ
T1 sequence (P67870 whole entry partner): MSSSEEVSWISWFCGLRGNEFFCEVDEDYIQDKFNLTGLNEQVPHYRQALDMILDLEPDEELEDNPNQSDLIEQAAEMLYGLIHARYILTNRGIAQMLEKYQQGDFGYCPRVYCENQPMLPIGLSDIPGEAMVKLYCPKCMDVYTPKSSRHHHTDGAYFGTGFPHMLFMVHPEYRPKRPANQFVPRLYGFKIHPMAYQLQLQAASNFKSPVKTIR

**Q.** `Clc1cccc(Nc2c(-c3ccncn3)nn3cnccc23)c1` [Compound 13, N-(3-chlorophenyl)-2-(pyrimidin-4-yl)pyrazolo[1,5-c]pyrimidin-3-amine] was tested. Which IC50 (recombinant human CK2) did it give?
**A.** The IC50 was 0.11 µM.

**Q.** And the IC50 (H1299 (lung))?
**A.** Its IC50 is 1.6 µM.

**Q.** And the IC50 (HCT116 (colon))?
**A.** Its IC50 is 2.1 µM.

**Q.** And the IC50 (A375 (melanoma))?
**A.** The IC50 was 3.4 µM.

**Q.** What about the IC50 (MIAPaCa-2 (pancreas)) of the same molecule?
**A.** Its IC50 is 1.5 µM.

**Q.** And the IC50 (PC3 (prostate))?
**A.** The IC50 was 1.2 µM.

**Q.** And the IC50 (MDA-MB-231 (breast))?
**A.** The IC50 was 4.6 µM.

**Q.** And the IC50 (MCF7 (breast))?
**A.** Its IC50 is 5.5 µM.

**Q.** And the IC50 (HL60 (leukemia))?
**A.** The IC50 was 3.9 µM.
